We go through 3 molecules from patent publication US20240368158A1, “KINASE MODULATORS, COMPOSITIONS COMPRISING THE KINASE MODULATOR, AND METHODS OF USING THE SAME” (BIOFRONT LTD, priority 2021, published 2024).

For one test, the target named is T1, HPK1 (Homo sapiens, UniProt Q92918).
T1 construct: purchased Signal Chem M23-11G-10
T1 sequence (Q92918 1-346 limits assumed): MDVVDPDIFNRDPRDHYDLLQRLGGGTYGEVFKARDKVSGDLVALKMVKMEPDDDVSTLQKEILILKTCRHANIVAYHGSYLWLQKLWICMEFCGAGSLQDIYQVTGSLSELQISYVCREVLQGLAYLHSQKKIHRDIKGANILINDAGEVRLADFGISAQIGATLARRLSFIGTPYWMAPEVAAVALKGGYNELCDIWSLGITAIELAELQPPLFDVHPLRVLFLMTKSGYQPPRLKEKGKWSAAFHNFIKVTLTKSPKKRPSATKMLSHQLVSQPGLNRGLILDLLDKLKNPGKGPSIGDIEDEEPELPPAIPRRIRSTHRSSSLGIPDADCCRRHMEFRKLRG
The test is described as follows: HPK1 enzyme inhibition assay (ADP-Glo). The conditions noted are these: MBP substrate, ATP. It is filed as biochemical. (In general: In ADP-Glo the light output rises with the ADP produced.)

The test system of test [1] is HPK1 p-SLP-76 in Jurkat cells. The test is described as follows: HPK1 p-SLP-76 inhibition assay in Jurkat cells (HTRF). It counts as cell-based. Particulars: Homo sapiens, 4 h compound, anti-CD3 stimulation 20 min. On the technique in general: Time-resolved FRET reads energy transfer from a long-lived donor to a nearby acceptor.
Another test concerns the target T2, FLT3-ITD (Homo sapiens, UniProt P36888).
T2 construct: The FLT3-ITD protein was purchased from Invitrogen (PV6190)
T2 sequence (P36888 1-993): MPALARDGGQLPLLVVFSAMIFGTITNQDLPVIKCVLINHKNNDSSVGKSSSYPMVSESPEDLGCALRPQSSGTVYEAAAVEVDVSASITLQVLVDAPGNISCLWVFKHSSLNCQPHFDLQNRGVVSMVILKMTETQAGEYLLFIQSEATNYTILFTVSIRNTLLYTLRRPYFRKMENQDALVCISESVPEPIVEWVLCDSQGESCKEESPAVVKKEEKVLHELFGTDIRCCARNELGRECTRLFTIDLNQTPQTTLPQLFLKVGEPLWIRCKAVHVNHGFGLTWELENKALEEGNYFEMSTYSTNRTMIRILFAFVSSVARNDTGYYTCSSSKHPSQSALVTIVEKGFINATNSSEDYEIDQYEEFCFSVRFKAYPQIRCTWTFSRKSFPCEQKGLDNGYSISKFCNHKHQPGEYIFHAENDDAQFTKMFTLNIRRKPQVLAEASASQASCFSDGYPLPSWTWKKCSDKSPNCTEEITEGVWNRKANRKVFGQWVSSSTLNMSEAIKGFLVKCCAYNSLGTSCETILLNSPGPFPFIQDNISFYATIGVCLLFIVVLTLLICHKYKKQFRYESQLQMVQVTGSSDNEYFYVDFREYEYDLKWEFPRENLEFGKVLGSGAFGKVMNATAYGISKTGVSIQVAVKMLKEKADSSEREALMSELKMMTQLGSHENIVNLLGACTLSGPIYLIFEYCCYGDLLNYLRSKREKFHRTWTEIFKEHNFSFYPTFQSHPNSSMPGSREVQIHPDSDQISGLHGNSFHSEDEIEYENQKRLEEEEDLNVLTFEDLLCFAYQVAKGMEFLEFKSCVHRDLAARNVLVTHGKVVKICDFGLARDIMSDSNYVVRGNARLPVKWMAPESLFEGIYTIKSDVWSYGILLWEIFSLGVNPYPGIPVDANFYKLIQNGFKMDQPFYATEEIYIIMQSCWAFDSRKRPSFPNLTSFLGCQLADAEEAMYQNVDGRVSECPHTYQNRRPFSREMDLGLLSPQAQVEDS
Kind of test: FLT3-ITD enzyme inhibition assay (HTRF KinEASE-TK). Particulars: FLT3-ITD protein, ATP 15 μM. It counts as biochemical. The procedure: The compound was dissolved in 100% DMSO at the concentration of 10 mM. The FLT3-ITD protein was purchased from Invitrogen (PV6190). 5 μL per well of 2×FLT3-ITD protein was added to assay plate containing the test compound, centrifuged at 1000 rpm for 1 minute, and then incubated at 25° C. for 15 minutes. HTRF KinEASE-TK kit was purchased from Cisbio (62TK0PEC) and ATP was purchased from Thermo Fisher Scientific (R0441). TK-Substrate-biotin and ATP were added 5 μL per well mixture of 2×TK-Substrate-biotin (final conc. is […]) and ATP (final conc. is 15 μM), centrifuged at 1000 rpm for 1 minute, then incubated at 25° C. for 60 minutes. Then added 10 μL of detection buffer (0.25×TK-antibody Eu3+-cryptate, 0.125 μM streptavidine-XL 665) to the assay plate and centrifuged at 1000 rpm for 1 minute then incubated at 25° C. for 60 minutes and 4° C. incubated for overnight, the product was determined. Based on the results, the IC50 value of the compound was calculated.

A word on the IC50: it is the concentration needed to halve the response being measured. The low end stands for higher potency, the high end for lower potency. With `O=C1CNCCN1c1cccc(-c2cnc3[nH]cc(C#Cc4ccccn4)c3c2Cl)c1` [Example 7, 1-(3-(4-chloro-3-(pyridin-2-ylethynyl)-1H-pyrrolo[2,3-b]pyridin-5-yl)phenyl) piperazin-2-one], the results for the IC50 (against HPK1; in test [1]; against FLT3-ITD) were 10 to 100 nM, 3000 to 10000 nM and 10 to 100 nM, respectively.
In the case of `CCc1c[nH]c2ncc(-c3nc(N4CCNCC4=O)sc3C)c(Cl)c12` [Example 20, 1-(4-(4-chloro-3-ethyl-1H-pyrrolo[2,3-b]pyridin-5-yl)-5-methylthiazol-2-yl)piperazin-2-one], the IC50 was 100 to 1000 nM on HPK1, over 10000 nM in test [1] and 10 to 100 nM on FLT3-ITD.
As for `CCc1c[nH]c2ncc(-c3cccc(N4CCN(C(=O)CCCO[C@@H]5O[C@H](CO)[C@@H](O)[C@H](O)[C@H]5O)CC4=O)c3)c(Cl)c12` [Example 48, 1-(3-(4-chloro-3-ethyl-1H-pyrrolo[2,3-b]pyridin-5-yl)phenyl)-4-(4-(((2R,3R,4S,5S,6R)-3,4,5-trihydroxy-6-(hydroxymethyl)tetrahydro-2H-pyran-2-yl)oxy)butanoyl)piperazin-2-one], the half-maximal inhibitory concentration (IC50) was at most 10 nM against HPK1, over 10000 nM in test [1] and at most 10 nM against FLT3-ITD.
